# pIC50: −log10 of the molar value.
# Legend:
# MOF-KAT8 [1] = biological target: T1, MOF-KAT8 (Homo sapiens, UniProt Q9H7Z6); test: Acetyltransferase biochemical assay (AlphaScreen), KAT8; settings: Table 4 (MOF-KAT8); 0.4 μM Acetyl coenzyme A, histone H4, 20 nM enzyme
# T1 sequence (Q9H7Z6 177-447): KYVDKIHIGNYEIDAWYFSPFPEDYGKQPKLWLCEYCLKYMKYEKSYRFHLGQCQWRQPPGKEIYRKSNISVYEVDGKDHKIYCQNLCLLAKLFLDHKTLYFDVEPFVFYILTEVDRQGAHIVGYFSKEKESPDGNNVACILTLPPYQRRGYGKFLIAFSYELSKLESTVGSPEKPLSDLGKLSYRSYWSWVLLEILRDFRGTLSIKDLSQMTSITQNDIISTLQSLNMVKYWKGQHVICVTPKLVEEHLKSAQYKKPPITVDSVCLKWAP
# MOZ-KAT6A = biological target: T2, MOZ-KAT6A (Homo sapiens, UniProt Q92794, A567V); test: Revised Acetyltransferase Biochemical Assay, KAT6A; settings: Table 8 (MOZ-KAT6A), 1 μM Acetyl coenzyme A
# T2 construct: encoding amino acid residues 507 to 778 (Uniprot Q92794-1) of human KAT6A; made in house; host or cells: E. coli BL21 DE3
# T2 sequence (Q92794 507-778 A567V limits assumed): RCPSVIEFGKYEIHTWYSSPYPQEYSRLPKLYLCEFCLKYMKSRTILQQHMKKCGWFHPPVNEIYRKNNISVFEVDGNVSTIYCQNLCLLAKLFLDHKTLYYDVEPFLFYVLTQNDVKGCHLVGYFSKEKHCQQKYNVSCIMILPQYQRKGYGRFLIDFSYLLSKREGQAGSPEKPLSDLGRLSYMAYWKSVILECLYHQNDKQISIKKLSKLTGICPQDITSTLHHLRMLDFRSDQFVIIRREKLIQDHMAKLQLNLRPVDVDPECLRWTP
# HBO-KAT7 = biological target: T3, HBO-KAT7 (Homo sapiens, UniProt O95251); test: Revised Acetyltransferase Biochemical Assay, KAT7; settings: Table 9 (HBO-KAT7), 1 μM Acetyl coenzyme A
# T3 construct: encoding amino acid residues 325 to 611 (Uniprot 095251-1) of human KAT7; made in house; host or cells: E. coli BL21 DE3 RIL
# T3 sequence (O95251 with tags, fused parts or gaps): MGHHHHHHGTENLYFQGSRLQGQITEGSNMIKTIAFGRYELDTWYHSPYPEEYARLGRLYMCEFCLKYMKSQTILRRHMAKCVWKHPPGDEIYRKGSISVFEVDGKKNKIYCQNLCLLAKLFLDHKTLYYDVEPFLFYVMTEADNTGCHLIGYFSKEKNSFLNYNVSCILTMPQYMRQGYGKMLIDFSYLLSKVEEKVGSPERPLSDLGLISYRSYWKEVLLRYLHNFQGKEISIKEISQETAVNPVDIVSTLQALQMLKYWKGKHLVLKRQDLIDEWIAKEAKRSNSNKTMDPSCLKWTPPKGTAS
# TIP60-KAT5 = biological target: T4, TIP60-KAT5 (Homo sapiens, UniProt Q92993); test: Revised Acetyltransferase Biochemical Assay, KAT5; settings: 10 nM KAT5, 1 μM AcCoA, 100 nM histone H4, 90 min
# T4 construct: encoding amino acid residues 2 to 461 (Uniprot Q92993-2) of human KAT5 isoform; made in house; host or cells: E. coli BL21 DE3
# T4 sequence (Q92993 2-461 isoform Q92993-2): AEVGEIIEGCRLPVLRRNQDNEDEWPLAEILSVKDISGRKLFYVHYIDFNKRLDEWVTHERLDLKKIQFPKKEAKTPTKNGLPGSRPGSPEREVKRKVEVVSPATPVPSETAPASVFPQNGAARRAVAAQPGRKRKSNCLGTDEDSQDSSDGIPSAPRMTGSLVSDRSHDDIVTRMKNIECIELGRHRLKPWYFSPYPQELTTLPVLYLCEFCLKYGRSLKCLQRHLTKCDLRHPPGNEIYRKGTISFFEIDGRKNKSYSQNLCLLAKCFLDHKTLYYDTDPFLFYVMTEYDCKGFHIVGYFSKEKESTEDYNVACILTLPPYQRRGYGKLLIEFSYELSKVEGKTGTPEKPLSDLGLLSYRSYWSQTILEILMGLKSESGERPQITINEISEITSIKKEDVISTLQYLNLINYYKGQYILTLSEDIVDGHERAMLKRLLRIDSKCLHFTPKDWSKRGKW
# QKF-KAT6B = biological target: T5, QKF-KAT6B (Homo sapiens, UniProt Q8WYB5); test: Revised Acetyltransferase Biochemical Assay, KAT6B; settings: 8 nM KAT6B, 1 μM AcCoA, 100 nM histone H3.1, 90 min
# T5 construct: purchased SignalChem K315-381BG
# T5 sequence (Q8WYB5 whole entry): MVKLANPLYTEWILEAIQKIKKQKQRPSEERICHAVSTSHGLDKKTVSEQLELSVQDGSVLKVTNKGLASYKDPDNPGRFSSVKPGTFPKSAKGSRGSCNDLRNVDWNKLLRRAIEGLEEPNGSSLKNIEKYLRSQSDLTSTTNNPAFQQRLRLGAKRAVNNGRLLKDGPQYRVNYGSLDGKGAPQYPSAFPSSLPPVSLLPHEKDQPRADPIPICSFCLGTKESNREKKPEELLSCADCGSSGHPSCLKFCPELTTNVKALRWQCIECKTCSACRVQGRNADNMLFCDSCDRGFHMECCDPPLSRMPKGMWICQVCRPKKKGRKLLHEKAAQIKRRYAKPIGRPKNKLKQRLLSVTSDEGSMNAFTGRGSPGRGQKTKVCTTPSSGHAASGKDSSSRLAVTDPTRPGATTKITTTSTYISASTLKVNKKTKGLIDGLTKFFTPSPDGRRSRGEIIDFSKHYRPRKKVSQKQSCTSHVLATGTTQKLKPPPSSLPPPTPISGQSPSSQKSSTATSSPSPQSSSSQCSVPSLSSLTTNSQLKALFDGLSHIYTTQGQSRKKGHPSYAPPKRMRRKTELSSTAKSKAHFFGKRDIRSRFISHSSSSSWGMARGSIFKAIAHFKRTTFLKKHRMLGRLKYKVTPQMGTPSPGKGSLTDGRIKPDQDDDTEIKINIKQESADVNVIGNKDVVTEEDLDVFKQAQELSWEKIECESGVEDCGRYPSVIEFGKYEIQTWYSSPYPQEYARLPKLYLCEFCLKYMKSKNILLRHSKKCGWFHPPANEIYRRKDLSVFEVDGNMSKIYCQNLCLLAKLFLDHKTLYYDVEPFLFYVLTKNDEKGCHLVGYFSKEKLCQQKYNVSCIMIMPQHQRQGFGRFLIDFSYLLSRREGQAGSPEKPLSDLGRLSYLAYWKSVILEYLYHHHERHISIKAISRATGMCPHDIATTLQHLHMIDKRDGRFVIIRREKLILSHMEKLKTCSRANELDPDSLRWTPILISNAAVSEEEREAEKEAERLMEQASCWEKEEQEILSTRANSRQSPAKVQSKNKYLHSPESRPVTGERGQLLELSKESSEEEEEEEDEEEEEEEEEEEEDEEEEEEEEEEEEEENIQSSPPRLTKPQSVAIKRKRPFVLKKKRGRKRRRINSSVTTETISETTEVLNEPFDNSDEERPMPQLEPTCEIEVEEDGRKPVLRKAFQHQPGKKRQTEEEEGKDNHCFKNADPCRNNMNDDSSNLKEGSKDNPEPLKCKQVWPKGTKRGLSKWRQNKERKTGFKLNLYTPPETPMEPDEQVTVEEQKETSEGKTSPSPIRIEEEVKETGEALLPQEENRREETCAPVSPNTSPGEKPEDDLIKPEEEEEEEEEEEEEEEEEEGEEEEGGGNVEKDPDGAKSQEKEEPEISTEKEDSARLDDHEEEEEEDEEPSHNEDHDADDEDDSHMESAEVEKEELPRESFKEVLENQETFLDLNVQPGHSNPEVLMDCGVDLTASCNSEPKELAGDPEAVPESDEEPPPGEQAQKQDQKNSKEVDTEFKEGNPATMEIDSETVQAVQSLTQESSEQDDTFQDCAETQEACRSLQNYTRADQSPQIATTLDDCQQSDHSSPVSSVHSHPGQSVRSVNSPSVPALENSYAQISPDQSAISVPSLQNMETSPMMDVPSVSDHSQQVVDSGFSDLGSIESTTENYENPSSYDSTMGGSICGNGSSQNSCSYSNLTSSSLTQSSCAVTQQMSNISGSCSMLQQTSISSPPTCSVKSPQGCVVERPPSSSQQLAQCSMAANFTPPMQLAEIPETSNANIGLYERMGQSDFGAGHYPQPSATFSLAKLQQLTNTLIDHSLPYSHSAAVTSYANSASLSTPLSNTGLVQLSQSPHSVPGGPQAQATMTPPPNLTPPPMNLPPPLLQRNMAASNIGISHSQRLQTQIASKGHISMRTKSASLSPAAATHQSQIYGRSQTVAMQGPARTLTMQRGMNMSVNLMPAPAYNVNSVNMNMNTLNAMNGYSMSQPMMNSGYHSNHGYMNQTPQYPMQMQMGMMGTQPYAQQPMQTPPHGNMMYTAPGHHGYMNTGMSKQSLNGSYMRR
# Description: KAT6B was obtained from SignalChem, catalog ID: K315-381BG
# [2] = system: histone H3 Lysine 14 acetylation (HBO1 mediated) in U2OS cells; test: Histone H3 Lysine 14 Acetylation Biomarker Assay (384-well, U2OS); assay type: cell-based; settings: Homo sapiens, serum free medium, 24 hours incubation
# In short: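 U2OS cells in serum-free medium treated with compound 24 h; DMSO and 10 μM reference inhibitor as 0% and 100% controls. Fixed cells immunostained for H3K14ac (AlexaFluor 488) with Hoechst nuclear mask, imaged by high-content analysis; per-cell intensity converted to % inhibition, IC50 by four-parameter logistic fit.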
# [3] = system: histone H2A.Z Lysine 7 acetylation (TIP60 mediated) in U2OS cells; test: H2A.Z Lysine 7 Acetylation Biomarker Assay (384-well, U2OS); assay type: cell-based; settings: Homo sapiens, serum free medium, 24 hours incubation
# In short: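 U2OS cells (3,000/well) were treated with compound for 24 h after a serum-free wash, then fixed. They were stained with anti-H2A.ZK7ac, an AlexaFluor 488 secondary and Hoechst. High-content imaging gave mean nuclear intensity per cell, converted to percent inhibition against on-plate controls, and IC50 came from a four-parameter logistic fit.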
# [4] = system: histone H3K23 acetylation (KATE mediated) in U2OS cells; test: Histone H3 Lysine 23 Acetylation Biomarker Assay (U2OS); assay type: cell-based; settings: Homo sapiens, 96 well, 24 hours incubation
# In short: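 U2OS cells were treated with compound for 24 h, then fixed and immunostained for H3K23ac with Hoechst nuclear counterstain. Per-nucleus Alexa647 intensity was quantified by high-content imaging and converted to % inhibition against DMSO and 10 μM reference-inhibitor controls. IC50 was derived from a four-parameter logistic fit.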
# MOF-KAT8 [5] = biological target: T1, MOF-KAT8; test: Revised Acetyltransferase Biochemical Assay, KAT8
Structure (SMILES),pIC50 (MOF-KAT8 [1]),pIC50 (MOZ-KAT6A),pIC50 (HBO-KAT7),pIC50 (TIP60-KAT5),pIC50 (QKF-KAT6B),pIC50 [2],pIC50 [3],pIC50 [4],pIC50 (MOF-KAT8 [5])
O=C(NCC(c1ccccc1)c1nccs1)C1=Nc2ccc(I)cc2S(=O)(=O)N1 (stereo not drawn) [Example 167],5.19,8.40,7.21,7.25,7.57,6.46,6.29,7.24,5.08
O=C(NCC(c1ccccc1)c1nncs1)C1=Nc2ccc(I)cc2S(=O)(=O)N1 (stereo not drawn) [Example 168],5.47,8.10,6.21,6.34,7.43,5.19,5.05,6.28,4.58
O=C(NCCc1ccccc1-c1n[nH]c(=O)o1)C1=Nc2ccc(I)cc2S(=O)(=O)N1 [Example 172],5.29,8.30,7.39,7.60,6.55,5.54,5.68,< 5.00,5.21
O=C(NCC(c1ncco1)c1ccccc1OC(F)F)C1=Nc2ccc(I)cc2S(=O)(=O)N1 (stereo not drawn) [Example 179],4.98,8.30,7.55,7.54,7.06,6.66,5.96,6.95,5.01
O=C(NCC(c1ccccc1)c1nnc(CC(F)(F)F)o1)C1=Nc2ccc(I)cc2S(=O)(=O)N1 (stereo not drawn) [Example 181],3.98,7.49,6.49,6.91,7.11,4.45,< 4.40,< 5.00,4.51
O=C(NCC(c1ccccc1)c1ncco1)C1=Nc2ccc(Cl)cc2S(=O)(=O)N1 (stereo not drawn) [Example 182],4.30,8.22,6.63,6.55,7.23,6.31,5.09,7.08,4.61
CN(CC(c1ccccc1)c1ncco1)C(=O)C1=Nc2ccc(I)cc2S(=O)(=O)N1 (stereo not drawn) [Example 203],3.99,6.37,5.78,5.43,5.48,5.65,< 4.40,< 5.00,3.94
"O=C(NCC(c1ccccc1)c1ncco1)C1=Nc2ccc(-c3c[nH]nn3)cc2S(=O)(=O)N1 (stereo not drawn) [Example 213, N-(2-(Oxazol-2-yl)-2-phenylethyl)-7-(1H-1,2,3-triazol-4-yl)-2H-benzo[e][1,2,4]thiadiazine-3-carboxamide 1,1-dioxide]",5.45,8.70,6.95,6.71,7.66,5.31,4.53,6.94,4.82
"O=C(NCC(c1cccc(O)c1)c1ncco1)C1=Nc2ccc(I)cc2S(=O)(=O)N1 (stereo not drawn) [Example 215, N-(2-(3-Hydroxyphenyl)-2-(oxazol-2-yl)ethyl)-7-iodo-2H-benzo[e][1,2,4]thiadiazine-3-carboxamide 1,1-dioxide]",5.06,8.40,7.70,7.60,7.19,6.66,5.35,6.02,5.24
